Active and inactive are the calls of the source.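 How the source made its calls: active means compounds giving half or more protection of infected cells from virus-caused growth loss, again on retest; inactive means the rest.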
Tested on: CEM cells HIV-1 protection, formazan growth assay
Assay: NCI AIDS Antiviral Assay
Conditions: for IC50: measured here: growth of uninfected CEM cells
Summary of the method: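 Protection of CEM cells against HIV-1 measured as cell growth via soluble formazan read-out, with five concentrations tested on both infected and uninfected cells; failure to protect may reflect toxicity.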

## CNc1nc(SC)nc2c1S(=O)(=O)N=CN2
  EC50: > 263 µM
  IC50: > 263 µM

## C=C1C(=O)OC2C1C(OC(=O)/C(=C/C)COC(C)=O)CC1(CO1)C1C(OC(=O)/C(=C/C)CO)C=C(C)C21 (centres undefined)
  outcome: inactive

## CSCCC(NC(=O)OCc1ccccc1)NC(=O)OCc1ccccc1
  EC50: > 200 µM
  IC50: > 200 µM

## CCOC(=O)c1cc(=O)n(C)c(=O)n1C
  outcome: inactive

## Cc1cn(C2C=CC(O)CC2)c(=O)[nH]c1=O (centres undefined)
  EC50: > 589 µM
  IC50: > 589 µM

## O=C(O)C[C@H](Cl)[C@H](NC(=O)OCc1ccccc1)C(=O)O
  outcome: inactive

## CCOC(=O)Nc1cc(NC(/C=N/NC(C)=O)C(=O)OCC)c(OC)cc1NC(C)=O (centres undefined)
  EC50: > 200 µM
  IC50: > 200 µM

## CCCC1c2c(cc(=O)[nH]c2O)C(=O)N1Cc1ccccc1 (centres undefined)
  EC50: > 63.1 µM
  IC50: > 63.1 µM

## O=S1(=O)OCCOS(=O)(=O)C1C1c2ccccc2-c2ccccc21
  EC50: > 200 µM
  IC50: 30.9 µM

## COc1ccc(C2NC(=O)N3C(c4ccc(OC)c(OC)c4)NC(=O)N23)cc1OC (centres undefined)
  EC50: > 200 µM
  IC50: > 200 µM

## CC(=O)OCC1OC(N=[N+]=[N-])C(OC(C)=O)C(OC(C)=O)C1OC1OC(COC(C)=O)C(OC(C)=O)C(OC(C)=O)C1OC(C)=O (centres undefined)
  EC50: > 53.7 µM
  IC50: > 53.7 µM

## O=C(O)c1ccc2cc(O)ccc2c1
  EC50: > 200 µM
  IC50: > 200 µM

## C/C=C\C(=O)C#Cc1cnc(OC)nc1OC
  EC50: > 2 µM
  IC50: 0.0912 µM

## CC(=O)Nc1ccc2oc(=O)ccc2c1
  EC50: > 1230 µM
  IC50: 562 µM

## c1cc2c(c(NC3=NCCO3)c1)CCC2
  EC50: > 200 µM
  IC50: 112 µM

## CCOC(=O)C(=O)Nc1c(C(C)C)cccc1C(C)C
  outcome: inactive

## COc1ccc(C2(O)c3ccccc3C(=O)N(C)C2(O)c2ccc(OC)cc2)cc1 (centres undefined)
  EC50: > 200 µM
  IC50: 37.2 µM

## COC(=O)c1c2c(cc3c1CC1(Cc4ccc(C(C)=O)cc4C1)C3)CCC2 (centres undefined)
  EC50: > 200 µM
  IC50: > 200 µM

## COc1ccc(/C(C)=N\NS(=O)(=O)c2ccc(NC(C)=O)cc2)cc1
  EC50: > 182 µM
  IC50: > 182 µM

## CC(=O)NNc1nc(C)c(C(/C=C/c2ccc([N+](=O)[O-])cc2)=N/NC(N)=S)s1
  EC50: > 69.2 µM
  IC50: > 69.2 µM

## CN1C/C(=C\c2cccs2)C(O)/C(=C/c2cccs2)C1 (centres undefined)
  EC50: > 200 µM
  IC50: 115 µM

## CC(=O)C(=C(I)I)c1ccccc1
  outcome: inactive

## S=C1Cc2c(-c3ccc(Cl)cc3)cc(-c3ccccc3)nc2-c2ccccc2N1
  EC50: > 200 µM
  IC50: 20.9 µM

## CCOC(=O)Oc1ccc2[nH]c3c(C)cc(N)c(C)c3c2c1
  EC50: > 93.3 µM
  IC50: 39.8 µM

## CC(=O)NC1C(OCc2ccccc2)OC(COC(=O)CCCCCCCCCCNC(=O)c2cccc3c(=O)c4ccccc4[nH]c23)C(O)C1OC(C)C(=O)NC(C)C(=O)NC(CCC(N)=O)C(N)=O (centres undefined)
  EC50: > 7.41 µM
  IC50: > 7.41 µM

## N#CC1([N+](=O)[O-])C=C1c1ccccc1 (centres undefined)
  EC50: > 200 µM
  IC50: 89.1 µM

## COc1ccc(Nc2nc3c(N)cc(C(F)(F)F)cc3nc2-c2ccccc2)cc1
  EC50: > 12.6 µM
  IC50: > 12.6 µM

## CCOC(=O)c1sc2c(c1OC(=O)c1ccccc1)c(=O)n(-c1ccccc1)c(=S)n2-c1ccccc1
  EC50: > 200 µM
  IC50: 132 µM

## O=c1nc(Oc2ccccc2)nc2cnccn12
  EC50: > 372 µM
  IC50: 145 µM

## Cc1nnc(-n2c(O)cc(=O)n(-c3ccccc3)c2=S)nc1/C=C/c1ccc(N(C)C)cc1
  EC50: > 100 µM
  IC50: 5.62 µM

## CC(C)(CO)CNc1nc(N)nc(Cl)c1N
  EC50: > 200 µM
  IC50: > 200 µM

## CCOP(=O)(OCC)C(C)(CC)/N=C(\N)NC#N (centres undefined)
  EC50: > 200 µM
  IC50: > 200 µM

## Cn1c2c(c3ccccc31)CCN(CCCCN1CCc3c(n(C)c4ccccc34)C1=O)C2
  EC50: > 40.7 µM
  IC50: > 40.7 µM

## Nc1cc2ncnn2c(SCC(=O)N/N=C/C(Br)=C\c2ccccc2)n1
  EC50: > 200 µM
  IC50: 7.94 µM

## COC(=O)CC=C(c1cc(Cl)c(OC)c(C(=O)OC)c1)c1cc(Cl)c(OC)c(C(=O)OC)c1
  EC50: > 200 µM
  IC50: 41.7 µM

## COC(=O)C1CC(C=[N+](C)C)=C(SC)N1 (centres undefined)
  EC50: > 200 µM
  IC50: > 200 µM

## O=C1COC(c2ccccc2O)=NN1CCCN1CCCC1
  EC50: > 525 µM
  IC50: 372 µM

## COCN1COCN(C)C1=O
  EC50: > 1550 µM
  IC50: > 1550 µM

## CC1CC2(S(=O)(=O)c3ccccc3)ON1CC2S(=O)(=O)c1ccccc1 (centres undefined)
  outcome: inactive

## N#C/C(=C\c1ccccc1)c1ccc(F)cc1F
  EC50: > 200 µM
  IC50: 37.2 µM

## CC1CNC2(c3ccccc3)CSC=C(c3ccccc3)N12 (centres undefined)
  EC50: > 200 µM
  IC50: 117 µM

## O=C(O)c1ccc(C(=O)c2ccccc2C(=O)O)cc1
  EC50: > 200 µM
  IC50: > 200 µM

## COC(=O)NCC(OCc1cc2c(cc1I)OCO2)C1=CCCCC1 (centres undefined)
  EC50: > 29.5 µM
  IC50: > 29.5 µM

## Cc1nc2c(nc1C)C(=O)C=CC2=O
  EC50: > 200 µM
  IC50: 11.5 µM

## CC1=CC(=O)/C(=C/N2C(=O)/C(=C\c3cccc(O)c3)SC2=S)C(=O)O1
  EC50: > 200 µM
  IC50: 55 µM

## COC1CC(Br)(C#N)C1 (centres undefined)
  outcome: inactive

## NCCc1nc2ccccc2[nH]1
  EC50: > 200 µM
  IC50: > 200 µM

## Cn1c2c(c3ccccc31)CCN(CCCCN1CCN(c3ccccc3)CC1)C2=O
  EC50: > 30.9 µM
  IC50: > 30.9 µM

## Brc1ccc(-c2ccc3nnnn3n2)s1
  EC50: > 200 µM
  IC50: > 200 µM

## N#Cc1cccc(/C=C(/C(=O)c2ccccc2)c2ccccc2)c1
  EC50: > 17 µM
  IC50: 9.55 µM

## C1=Nc2ccc(cc2)-c2ccc(cc2)N=Cc2ccc(cc2)OCc2cccc(n2)COc2ccc1cc2
  EC50: > 100 µM
  IC50: > 100 µM

## CCCCc1cc(=O)oc2c3c(c4c(c12)OC(C)(C)C=C4)O[C@H](C)[C@@H](C)[C@H]3O
  EC50: > 63.1 µM
  IC50: 15.5 µM

## C1CCC2(CC1)CCN(CCCN1CCOCC1)CC2
  outcome: inactive

## CN(C)Cc1cc(CN(C)C)c(O)c(CN(C)C)c1
  EC50: > 200 µM
  IC50: > 200 µM

## CC(C)=NNc1cnnc2ccc([N+](=O)[O-])cc12
  EC50: > 200 µM
  IC50: 70.8 µM

## COC(=O)c1cc(Cc2cc(C(=O)OC)c(OC)c(C(F)(F)F)c2)cc(C(F)(F)F)c1OC
  EC50: > 200 µM
  IC50: 25.7 µM

## CC1=Nc2c([nH]c(=S)[nH]c2=O)NC(c2c(Cl)cccc2Cl)C1 (centres undefined)
  EC50: > 7.76 µM
  IC50: > 7.76 µM

## O=c1ccn(C2CCC3(CO)CC23)c(=O)[nH]1 (centres undefined)
  EC50: > 50.1 µM
  IC50: > 50.1 µM

## O=C(CCCN1CCC2(CC1)CC(c1ccccc1)OC2=O)c1ccc(F)cc1 (centres undefined)
  EC50: > 200 µM
  IC50: 89.1 µM

## Cc1cccc(C(C)C)c1NC(=O)C(=O)CC(=O)c1sc(Nc2ccccc2Cl)nc1C
  EC50: > 200 µM
  IC50: > 200 µM

## Cc1nn(-c2ccccc2)c2nc3ccc(Cl)cc3c(-c3ccccc3)c12
  EC50: > 200 µM
  IC50: > 200 µM

## COc1ccc2c(c1C)C(=O)C(O)(CC=C(C)C)O2 (centres undefined)
  EC50: > 200 µM
  IC50: 42.7 µM

## O=C(CCc1n[nH]c(=S)o1)Nc1cc(Cl)ccc1Cl
  EC50: > 112 µM
  IC50: > 112 µM

## COC1=C(C2=C(OC)C(=O)c3cc4c(c(O)c3C2=O)C(=O)OC(C)C4)C(=O)c2c(cc3c(c2O)C(=O)OC(C)C3)C1=O (centres undefined)
  outcome: inactive

## c1ccc(-c2c3ccccc3[o+]c3ccccc23)cc1
  EC50: > 200 µM
  IC50: 33.1 µM

## CC(=O)OC1COC(N2c3ccccc3[C@@H]3CCc4c([nH]c5ccccc45)[C@@H]32)C(OC(C)=O)C1OC(C)=O (mixture of isomers)
  EC50: > 155 µM
  IC50: 19.5 µM

## C[N+](C)(C)CC(=O)N/N=c1\cc(C(=O)Nc2ccc(N=O)cc2C#N)oc2cc(O)ccc12
  EC50: > 372 µM
  IC50: > 372 µM

## O=C(NC(=Nc1ccccc1)SCSC(=Nc1ccccc1)NC(=O)c1ccc(F)cc1)c1ccc(F)cc1
  EC50: > 200 µM
  IC50: > 200 µM

## COC(=O)c1ccc2c(c1)C(O)NC(=O)O2 (centres undefined)
  EC50: > 200 µM
  IC50: 34.7 µM

## COc1cc(C2C3=C(COC3=O)Oc3cc4c(cc32)OCO4)cc(OC)c1OC(C)=O (centres undefined)
  EC50: > 0.2 µM
  IC50: 0.0324 µM

## COc1ccccc1NC(=O)C1=C(C)NC(C)=C(C(=O)Nc2ccccc2OC)C1c1ccc(C(C)C)cc1
  outcome: inactive

## O=C1C2(CCCC13OC3c1ccccc1)OC2c1ccccc1 (centres undefined)
  EC50: > 200 µM
  IC50: 115 µM

## CN1N=C(c2ccccc2)C(C(c2ccccc2[N+](=O)[O-])C2C(=O)N(C)N=C2c2ccccc2)C1=O (centres undefined)
  EC50: > 81.3 µM
  IC50: 15.8 µM

## C[C@H]1CCCCC[C@@H]2CC(=O)CC2C(=O)CCC(=O)O1 (some centres undefined)
  EC50: > 200 µM
  IC50: > 200 µM

## CCC1NC(N=Nc2ccc([N+](=O)[O-])cc2)(P(=O)(OC(C)C)OC(C)C)OC1=O (centres undefined)
  EC50: > 219 µM
  IC50: > 219 µM

## COc1cc(OC)c(CSCC(NC(=O)OCC2c3ccccc3-c3ccccc32)C(=O)O)c(OC)c1 (centres undefined)
  EC50: > 200 µM
  IC50: 105 µM

## CC1C(=O)CCC1C(Sc1ccccc1)(Sc1ccccc1)Sc1ccccc1 (centres undefined)
  outcome: inactive

## Cc1c2ccncc2c(C)c2c1[nH]c1ccc(F)cc12
  EC50: > 200 µM
  IC50: 0.437 µM

## COc1nc(N)nc2c1n(C)c[n+]2C
  EC50: > 200 µM
  IC50: 141 µM

## Cc1cc(C)nc(NC(=S)Nc2ccc([N+](=O)[O-])cc2)c1
  EC50: > 200 µM
  IC50: > 200 µM

## S=c1nc(/C=C/c2ccc(Cl)c(Cl)c2)[nH][nH]1
  EC50: > 36.3 µM
  IC50: > 36.3 µM

## O=[N+]([O-])c1ccccc1S(=O)(=O)Nc1ccccc1
  outcome: inactive

## CCC1OC(=O)CC(O)C(C)C(OC2OC(C)CC(N(C)C)C2O)C(CC=O)CC(C)C(=O)/C=C/C2(C)OC2C1C (centres undefined)
  EC50: > 200 µM
  IC50: 33.9 µM

## CCCC1=C(OC)C(=O)c2c(C)cc(Cl)nc2C1=O
  EC50: > 200 µM
  IC50: 4.07 µM

## NC(=S)N/N=C1\COC(C(F)(F)F)(C(F)(F)F)C1
  EC50: > 200 µM
  IC50: 166 µM

## CCCc1cc(=O)oc2c3c(c4c(c12)OC(C)(C)CC4)O[C@H](C)C(C)C3=O (some centres undefined)
  EC50: 12.3 µM
  IC50: 186 µM

## O=C1C=C(Nc2ccccc2C(=O)c2ccccc2)c2ccccc2C1=O
  EC50: > 2.95 µM
  IC50: > 2.95 µM

## NC(N)=NS(=O)(=O)c1ccc(Nc2c3ccccc3nc3c(C(=O)Nc4ccc(S(N)(=O)=O)cc4)ccc(Cl)c23)cc1
  EC50: > 41.7 µM
  IC50: > 41.7 µM
